Test results reported in patent US4562287A, “2-(4-Biphenylyl)-4-hexenoic acid and derivatives thereof having anti-inflammatory activity” (priority 1983, dated 1985).

Key:
[1] = test system: SH Groups in serum; assay: SH groups in serum (Table 8); type: in vivo; details: arthritis checks 70, 77
[2] = test system: Carragenine induced edema; assay: Anti-inflammatory activity on carragenine induced edema (Table 11); type: in vivo
[3] = test system: erytrocytes sedimetation rate (ESR); assay: Erytrocytes sedimetation rate (ESR) (Table 8); type: in vivo; details: arthritis checks 41, 56
[4] = test system: Joint's diameter; assay: Joint's diameter in arthritis (Table 7); type: in vivo; set-up: unit not given here
[5] = test system: ulcerogenic effect; details: dose 5 mg; cited from earlier work
[6] = test system: Carragenine induced edema; assay: Carragenine induced edema, first test (Table 2); type: in vivo
Excerpt: |ANTI-INFLAMMATORY ACTIVITY. |Carragenine induced edema, first test.

[7] = test system: Freund's adjuvant induced arthritis; assay: Freund's adjuvant induced arthritis, edema inhibition
[8] = test system: capillary permeability (Serotonin); details: 200 mg/Kg p.o., checks 18.16
[9] = test system: Dextrose edema; assay: Edema induced by different substances: dextrose (Table 3); type: in vivo
Excerpt: (§1) |Edema induced by different substances.

[10] = test system: Carragenine edema; assay: Edema induced by different substances: carragenine (Table 3); type: in vivo
Excerpt: as §1

[11] = test system: Serotonin edema; assay: Edema induced by different substances: serotonin (Table 3); type: in vivo
Excerpt: as §1

[12] = test system: Hot plate, endurance time at 52° C.; assay: Analgesic activity, Hot plate (I); type: in vivo; details: 50 mg/Kg p.o.
Protocol: Dose endurance time at 52° C. over checks

[13] = test system: Carragenine induced edema; assay: Activity on carragenine induced edema (Table 9); type: in vivo
Excerpt: |Activity on carragenine induced edema.

[14] = British Patent No. 847.779; cited from earlier work
[15] = test system: Cotton-pellets induced granuloma; assay: Cotton-pellets induced granuloma; type: in vivo; details: 200 mg/Kg p.o.
Excerpt: | Cotton-pellets induced granuloma.

[16] = test system: Kaolin edema; assay: Edema induced by different substances: kaolin (Table 3); type: in vivo
Excerpt: as §1

[17] = test system: Yeast edema; assay: Edema induced by different substances: yeast (Table 3); type: in vivo
Excerpt: |Edema induced by different substances. | % edema inhibition

[18] = test system: capillary permeability (Dextran); assay: Effect on the capillary permeability, dextran; type: in vivo; details: 200 mg/Kg p.o., checks 14.83
Excerpt: (§2) |Effect on the capillary permeability

[19] = test system: capillary permeability (Histamine); assay: Effect on the capillary permeability, histamine; type: in vivo; details: 200 mg/Kg p.o., checks 21.33
Excerpt: as §2

## COc1ccc2c(c1)c(CC(=O)O)c(C)n2C(=O)c1ccc(Cl)cc1 [Indomethacin]
[1]; 1 mg/Kg p.o.
  SH groups diminution in %: 78%
[1]; 2 mg/Kg p.o.
  SH groups diminution in %: 50%
[2]; 5 mg/Kg p.o.
  % inhibition: 38%
[3]; 1 mg/Kg p.o.
  E.S.R.: 38
[3]; 2 mg/Kg p.o.
  E.S.R.: 15
[4]; 1 mg/Kg p.o., 1 week, arthritis checks 0.48, 0.38
  Joint's diameter: 0.38
[4]; 1 mg/Kg p.o., 2 weeks, arthritis checks 0.71, 0.75
  Joint's diameter: 0.50
[4]; 1 mg/Kg p.o., 3 weeks, arthritis checks 0.81, 0.79
  Joint's diameter: 0.49
[4]; 1 mg/Kg p.o., 4 weeks, arthritis checks 0.85, 0.89
  Joint's diameter: 0.55
[4]; 2 mg/Kg p.o., 1 week, arthritis checks 0.48, 0.38
  Joint's diameter: 0.22
[4]; 2 mg/Kg p.o., 2 weeks, arthritis checks 0.71, 0.75
  Joint's diameter: 0.39
[4]; 2 mg/Kg p.o., 3 weeks, arthritis checks 0.81, 0.79
  Joint's diameter: 0.34
[4]; 2 mg/Kg p.o., 4 weeks, arthritis checks 0.85, 0.89
  Joint's diameter: 0.34
[5]
  ulcerogenic effect: exhibits surely ulcerogenic effect
[6]; 2.5 mg/Kg p.o.
  % inhibition: 33%
[6]; 5 mg/Kg p.o.
  % inhibition: 36%
[6]; 10 mg/Kg p.o.
  % inhibition: 48%
[7]; 1 mg/Kg p.o., 2 days
  Edema inhibition %: 49%
[7]; 1 mg/Kg p.o., 4 days
  Edema inhibition %: 7%
[7]; 1 mg/Kg p.o., 8 days
  Edema inhibition %: 27%
[7]; 1 mg/Kg p.o., 12 days
  Edema inhibition %: 58%
[7]; 1 mg/Kg p.o., 16 days
  Edema inhibition %: 60%
[7]; 1 mg/Kg p.o., 20 days
  Edema inhibition %: 37%
[7]; 1 mg/Kg p.o., 24 days
  Edema inhibition %: 57%
[7]; 2 mg/Kg p.o., 2 days
  Edema inhibition %: 49%
[7]; 2 mg/Kg p.o., 4 days
  Edema inhibition %: 35%
[7]; 2 mg/Kg p.o., 8 days
  Edema inhibition %: 51%
[7]; 2 mg/Kg p.o., 12 days
  Edema inhibition %: 48%
[7]; 2 mg/Kg p.o., 16 days
  Edema inhibition %: 71%
[7]; 2 mg/Kg p.o., 20 days
  Edema inhibition %: 73%
[7]; 2 mg/Kg p.o., 24 days
  Edema inhibition %: 71%

## CC=CCC(C(=O)O)c1ccc(-c2ccccc2)cc1 (racemic) [SCR 157, 2-(4-biphenyl)-4-hexenoic acid]
[8]
  Effect on the capillary permeability, .0. m.micron: 16.57 m.micron
[9]; 50 mg/Kg p.o.
  % edema inhibition: 0%
[9]; 100 mg/Kg p.o.
  % edema inhibition: 8%
[9]; 200 mg/Kg p.o.
  % edema inhibition: 8%
[10]; 50 mg/Kg p.o.
  % edema inhibition: 8%
[10]; 100 mg/Kg p.o.
  % edema inhibition: 43%
[10]; 200 mg/Kg p.o.
  % edema inhibition: 64%
[11]; 50 mg/Kg p.o.
  % edema inhibition: 0%
[11]; 100 mg/Kg p.o.
  % edema inhibition: 16%
[11]; 200 mg/Kg p.o.
  % edema inhibition: 22%
[2]; 50 mg/Kg p.o.
  % inhibition: 33%
[12]; 1 hour
  endurance time at 52° C. over checks: 3
[12]; 2 hours
  endurance time at 52° C. over checks: 26
[13]; 50 mg/Kg p.o.
  Inhibition %: 10%
[13]; 75 mg/Kg p.o.
  Inhibition %: 31%
[13]; 112,5 mg/Kg p.o.
  Inhibition %: 24%
[14]
  anticholesterinemic and antiliphaemic properties: exhibits properties of anticholesterinemic and antiliphaemic agent
[15]
  % inhibition: 29%
[16]; 50 mg/Kg p.o.
  % edema inhibition: 42%
[16]; 100 mg/Kg p.o.
  % edema inhibition: 49%
[16]; 200 mg/Kg p.o.
  % edema inhibition: 57%
[17]; 50 mg/Kg p.o.
  % edema inhibition: 11%
[17]; 100 mg/Kg p.o.
  % edema inhibition: 22%
[17]; 200 mg/Kg p.o.
  % edema inhibition: 28%
[18]
  Effect on the capillary permeability, .0. m.micron: 14.85 m.micron
[19]
  Effect on the capillary permeability, .0. m.micron: 20.28 m.micron
